Measurements: US6914045B2, “Glycopeptide antibiotics” (Wyeth Holdings Corporation, priority 2001, dated 2005)
Values after ≈ are worked out from the molar mass of the structure shown.

Tests used:
Experiment in all cases: in vitro antibacterial evaluation, MIC by broth dilution
Format in all cases: cell-based
[1] = system: Escherichia coli; settings: for MIC Escherichia coli (ATCC 25922): strain ATCC 25922, 18 hours at 35° C.; for MIC Escherichia coli (GC 4559): strain GC 4559, 18 hours at 35° C.; for MIC Escherichia coli (GC 4560): strain GC 4560, 18 hours at 35° C.
Procedure, shortened: (§1)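 Test organisms, which included recent clinical isolates resistant to methicillin, penicillin and/or vancomycin, were inoculated at 5×10^5 CFU/mL into Muller-Hinton II […] containing antibiotic at 64-0.06 μg/mL. Minimum inhibitory concentrations were then read as the lowest level inhibiting growth.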

[2] = system: Enterococcus sp.; settings: broth dilution, 18 hours at 35° C.; for MIC Enterococcus faecalis (ATCC 29212): strain ATCC 29212; for MIC Enterococcus faecalis (GC 2242): strain GC 2242; for MIC Enterococcus faecium (GC 2243): strain GC 2243; for MIC Enterococcus faecalis (GC 2691): strain GC 2691; for MIC Enterococcus faecalis (GC 3059): strain GC 3059; for MIC Enterococcus faecalis (GC 4552): strain GC 4552; for MIC Enterococcus faecalis (GC 4553): strain GC 4553; for MIC Enterococcus faecalis (GC 4554): strain GC 4554; for MIC Enterococcus faecium (GC 4556): strain GC 4556; for MIC Enterococcus faecium (GC 4557): strain GC 4557; for MIC Enterococcus avium (GC 4558): strain GC 4558; for MIC Enterococcus faecalis (GC 6189): strain GC 6189
Procedure, shortened: as §1

[3] = system: Streptococcus sp.; settings: broth dilution, 18 hours at 35° C.; for MIC Streptococcus pneumoniae (ATCC 6301): strain ATCC 6301; for MIC Streptococcus pneumoniae (GC 1894): strain GC 1894; for MIC Streptococcus pyogenes (GC 4563): strain GC 4563; for MIC Streptococcus agalactiae (GC 4564): strain GC 4564; for MIC Streptococcus pneumoniae (GC 4565): strain GC 4565
Procedure, shortened: as §1

[4] = system: Staphylococcus sp.
Procedure, shortened: as §1

[5] = broth dilution, 18 hours at 35° C., inoculum 5×10^5 CFU/mL; strain GC 1131
[6] = broth dilution, 18 hours at 35° C.; strain ATCC 29213
[7] = broth dilution, 18 hours at 35° C.; strain GC 1131
[8] = broth dilution, 18 hours at 35° C.; strain GC 3051
[9] = broth dilution, 18 hours at 35° C.; strain GC 3053
[10] = broth dilution, 18 hours at 35° C.; strain GC 4541
[11] = broth dilution, 18 hours at 35° C.; strain GC 4542
[12] = broth dilution, 18 hours at 35° C.; strain GC 4544
[13] = broth dilution, 18 hours at 35° C.; strain GC 4545

## CC(c1ccccc1)C1NC(=O)CNC(=O)C(CO)NC(=O)C(C(O)C2CNC(=N)N2C2OC(CO)C(O)C(O)C2O)NC(=O)C(C(O)C2CNC(=N)N2)NC(=O)C(Cc2ccc(OC3OC(CO)C(OC4OC5COC(c6ccc(C=Cc7ccccc7)cc6)OC5C(O)C4O)C(O)C3O)cc2)NC1=O (stereo not shown) [Example 172]
[1]
  MIC Escherichia coli (ATCC 25922): >64 µg/mL
  MIC Escherichia coli (GC 4559): >64 µg/mL
  MIC Escherichia coli (GC 4560): 2 µg/mL (≈ 1.35 µM)
[2]; inoculum 5×10^5 CFU/mL
  MIC Enterococcus faecalis (ATCC 29212): 8 µg/mL (≈ 5.39 µM)
  MIC Enterococcus faecalis (GC 2242): 4 µg/mL (≈ 2.69 µM)
  MIC Enterococcus faecium (GC 2243): 8 µg/mL (≈ 5.39 µM)
  MIC Enterococcus faecalis (GC 2691): 4 µg/mL (≈ 2.69 µM)
  MIC Enterococcus faecalis (GC 3059): 8 µg/mL (≈ 5.39 µM)
  MIC Enterococcus faecalis (GC 4552): 8 µg/mL (≈ 5.39 µM)
  MIC Enterococcus faecalis (GC 4553): 4 µg/mL (≈ 2.69 µM)
  MIC Enterococcus faecalis (GC 4554): 4 µg/mL (≈ 2.69 µM)
  MIC Enterococcus faecium (GC 4556): 8 µg/mL (≈ 5.39 µM)
  MIC Enterococcus faecium (GC 4557): 8 µg/mL (≈ 5.39 µM)
  MIC Enterococcus avium (GC 4558): 4 µg/mL (≈ 2.69 µM)
  MIC Enterococcus faecalis (GC 6189): 2 µg/mL (≈ 1.35 µM)
[2]
  MIC Enterococcus faecalis (ATCC 29212): 8 µg/mL (≈ 5.39 µM)
  MIC Enterococcus faecalis (GC 2242): 4 µg/mL (≈ 2.69 µM)
  MIC Enterococcus faecium (GC 2243): 8 µg/mL (≈ 5.39 µM)
  MIC Enterococcus faecalis (GC 2691): 4 µg/mL (≈ 2.69 µM)
  MIC Enterococcus faecalis (GC 3059): 8 µg/mL (≈ 5.39 µM)
  MIC Enterococcus faecalis (GC 4552): 8 µg/mL (≈ 5.39 µM)
  MIC Enterococcus faecalis (GC 4553): 4 µg/mL (≈ 2.69 µM)
  MIC Enterococcus faecalis (GC 4554): 4 µg/mL (≈ 2.69 µM)
  MIC Enterococcus faecium (GC 4556): 8 µg/mL (≈ 5.39 µM)
  MIC Enterococcus faecium (GC 4557): 8 µg/mL (≈ 5.39 µM)
  MIC Enterococcus avium (GC 4558): 4 µg/mL (≈ 2.69 µM)
  MIC Enterococcus faecalis (GC 6189): 2 µg/mL (≈ 1.35 µM)
[3]; inoculum 5×10^5 CFU/mL
  MIC Streptococcus pneumoniae (ATCC 6301): <0.06 µg/mL
  MIC Streptococcus pneumoniae (GC 1894): <0.06 µg/mL
  MIC Streptococcus pyogenes (GC 4563): 0.12 µg/mL (≈ 0.0808 µM)
  MIC Streptococcus agalactiae (GC 4564): <0.06 µg/mL
  MIC Streptococcus pneumoniae (GC 4565): <0.06 µg/mL
[3]
  MIC Streptococcus pneumoniae (ATCC 6301): <0.06 µg/mL
  MIC Streptococcus pneumoniae (GC 1894): <0.06 µg/mL
  MIC Streptococcus pyogenes (GC 4563): 0.12 µg/mL (≈ 0.0808 µM)
  MIC Streptococcus agalactiae (GC 4564): <0.06 µg/mL
  MIC Streptococcus pneumoniae (GC 4565): <0.06 µg/mL
[4]; [5]
  MIC Staphylococcus aureus (GC 1131): 8 µg/mL (≈ 5.39 µM)
[4]; [6]
  MIC Staphylococcus aureus (ATCC 29213): 4 µg/mL (≈ 2.69 µM)
[4]; [7]
  MIC Staphylococcus aureus (GC 1131): 8 µg/mL (≈ 5.39 µM)
[4]; [8]
  MIC Staphylococcus aureus (GC 3051): 4 µg/mL (≈ 2.69 µM)
[4]; [9]
  MIC Staphylococcus aureus (GC 3053): 4 µg/mL (≈ 2.69 µM)
[4]; [10]
  MIC Staphylococcus aureus (GC 4541): 4 µg/mL (≈ 2.69 µM)
[4]; [11]
  MIC Staphylococcus aureus (GC 4542): 2 µg/mL (≈ 1.35 µM)
[4]; broth dilution, 18 hours at 35° C.; strain GC 4543
  MIC Staphylococcus aureus-SMITH (GC 4543): 8 µg/mL (≈ 5.39 µM)
[4]; [12]
  MIC Staphylococcus aureus (GC 4544): 8 µg/mL (≈ 5.39 µM)
[4]; [13]
  MIC Staphylococcus aureus (GC 4545): 4 µg/mL (≈ 2.69 µM)
[4]; broth dilution, 18 hours at 35° C.; strain GC 4546
  MIC Staphylococcus haemolyticus (GC 4546): 8 µg/mL (≈ 5.39 µM)
[4]; broth dilution, 18 hours at 35° C.; strain GC 4547
  MIC Coagulase Negative Staphylococcus (GC 4547): 8 µg/mL (≈ 5.39 µM)
[4]; broth dilution, 18 hours at 35° C.; strain GC 4548
  MIC Coagulase Negative Staphylococcus (GC 4548): 2 µg/mL (≈ 1.35 µM)
[4]; broth dilution, 18 hours at 35° C.; strain GC 4549
  MIC Coagulase Negative Staphylococcus (GC 4549): 2 µg/mL (≈ 1.35 µM)
[4]; broth dilution, 18 hours at 35° C.; strain GC 4551
  MIC Coagulase Negative Staphylococcus (GC 4551): 4 µg/mL (≈ 2.69 µM)
[4]; broth dilution, 18 hours at 35° C.; strain GC 6257
  MIC Coagulase Negative Staphylococcus (GC 6257): 2 µg/mL (≈ 1.35 µM)

## CC(c1ccccc1)C1NC(=O)CNC(=O)C(CO)NC(=O)C(C(O)C2CNC(=N)N2C2OC(CO)C(O)C(O)C2O)NC(=O)C(C(O)C2CNC(=N)N2)NC(=O)C(Cc2ccc(OC3OC(CO)C(OC4OC5COC(c6ccc(Oc7ccc(C(C)(C)C)cc7)cc6)OC5C(O)C4O)C(O)C3O)cc2)NC1=O (stereo not shown) [Example 181]
[1]
  MIC Escherichia coli (ATCC 25922): >64 µg/mL
  MIC Escherichia coli (GC 4559): >64 µg/mL
  MIC Escherichia coli (GC 4560): 16 µg/mL (≈ 10.4 µM)
[2]; inoculum 5×10^5 CFU/mL
  MIC Enterococcus faecalis (ATCC 29212): 2 µg/mL (≈ 1.31 µM)
  MIC Enterococcus faecalis (GC 2242): 2 µg/mL (≈ 1.31 µM)
  MIC Enterococcus faecium (GC 2243): 2 µg/mL (≈ 1.31 µM)
  MIC Enterococcus faecalis (GC 2691): 4 µg/mL (≈ 2.61 µM)
  MIC Enterococcus faecalis (GC 3059): 4 µg/mL (≈ 2.61 µM)
  MIC Enterococcus faecalis (GC 4552): 2 µg/mL (≈ 1.31 µM)
  MIC Enterococcus faecalis (GC 4553): 1 µg/mL (≈ 0.653 µM)
  MIC Enterococcus faecalis (GC 4554): 2 µg/mL (≈ 1.31 µM)
  MIC Enterococcus faecium (GC 4556): 4 µg/mL (≈ 2.61 µM)
  MIC Enterococcus faecium (GC 4557): 4 µg/mL (≈ 2.61 µM)
  MIC Enterococcus avium (GC 4558): 4 µg/mL (≈ 2.61 µM)
  MIC Enterococcus faecalis (GC 6189): 2 µg/mL (≈ 1.31 µM)
[2]
  MIC Enterococcus faecalis (ATCC 29212): 2 µg/mL (≈ 1.31 µM)
  MIC Enterococcus faecalis (GC 2242): 2 µg/mL (≈ 1.31 µM)
  MIC Enterococcus faecium (GC 2243): 2 µg/mL (≈ 1.31 µM)
  MIC Enterococcus faecalis (GC 2691): 4 µg/mL (≈ 2.61 µM)
  MIC Enterococcus faecalis (GC 3059): 4 µg/mL (≈ 2.61 µM)
  MIC Enterococcus faecalis (GC 4552): 2 µg/mL (≈ 1.31 µM)
  MIC Enterococcus faecalis (GC 4553): 1 µg/mL (≈ 0.653 µM)
  MIC Enterococcus faecalis (GC 4554): 2 µg/mL (≈ 1.31 µM)
  MIC Enterococcus faecium (GC 4556): 4 µg/mL (≈ 2.61 µM)
  MIC Enterococcus faecium (GC 4557): 4 µg/mL (≈ 2.61 µM)
  MIC Enterococcus avium (GC 4558): 4 µg/mL (≈ 2.61 µM)
  MIC Enterococcus faecalis (GC 6189): 2 µg/mL (≈ 1.31 µM)
[3]; inoculum 5×10^5 CFU/mL
  MIC Streptococcus pneumoniae (ATCC 6301): <0.06 µg/mL
  MIC Streptococcus pneumoniae (GC 1894): <0.06 µg/mL
  MIC Streptococcus pyogenes (GC 4563): 0.5 µg/mL (≈ 0.326 µM)
  MIC Streptococcus agalactiae (GC 4564): <0.06 µg/mL
  MIC Streptococcus pneumoniae (GC 4565): <0.06 µg/mL
[3]
  MIC Streptococcus pneumoniae (ATCC 6301): <0.06 µg/mL
  MIC Streptococcus pneumoniae (GC 1894): <0.06 µg/mL
  MIC Streptococcus pyogenes (GC 4563): 0.5 µg/mL (≈ 0.326 µM)
  MIC Streptococcus agalactiae (GC 4564): <0.06 µg/mL
  MIC Streptococcus pneumoniae (GC 4565): <0.06 µg/mL
[4]; [5]
  MIC Staphylococcus aureus (GC 1131): 4 µg/mL (≈ 2.61 µM)
[4]; [6]
  MIC Staphylococcus aureus (ATCC 29213): 4 µg/mL (≈ 2.61 µM)
[4]; [7]
  MIC Staphylococcus aureus (GC 1131): 4 µg/mL (≈ 2.61 µM)
[4]; [8]
  MIC Staphylococcus aureus (GC 3051): 4 µg/mL (≈ 2.61 µM)
[4]; [9]
  MIC Staphylococcus aureus (GC 3053): 4 µg/mL (≈ 2.61 µM)
[4]; [10]
  MIC Staphylococcus aureus (GC 4541): 4 µg/mL (≈ 2.61 µM)
[4]; [11]
  MIC Staphylococcus aureus (GC 4542): 4 µg/mL (≈ 2.61 µM)
[4]; [12]
  MIC Staphylococcus aureus (GC 4544): 4 µg/mL (≈ 2.61 µM)
[4]; [13]
  MIC Staphylococcus aureus (GC 4545): 4 µg/mL (≈ 2.61 µM)
[4]; strain GC 4543; broth dilution, 18 hours at 35° C.
  MIC Staphylococcus aureus-SMITH (GC 4543): 4 µg/mL (≈ 2.61 µM)
[4]; strain GC 4546; broth dilution, 18 hours at 35° C.
  MIC Staphylococcus haemolyticus (GC 4546): 8 µg/mL (≈ 5.22 µM)
[4]; strain GC 4547; broth dilution, 18 hours at 35° C.
  MIC Coagulase Negative Staphylococcus (GC 4547): 8 µg/mL (≈ 5.22 µM)
[4]; strain GC 4548; broth dilution, 18 hours at 35° C.
  MIC Coagulase Negative Staphylococcus (GC 4548): 2 µg/mL (≈ 1.31 µM)
[4]; strain GC 4549; broth dilution, 18 hours at 35° C.
  MIC Coagulase Negative Staphylococcus (GC 4549): 1 µg/mL (≈ 0.653 µM)
[4]; strain GC 4551; broth dilution, 18 hours at 35° C.
  MIC Coagulase Negative Staphylococcus (GC 4551): 2 µg/mL (≈ 1.31 µM)
[4]; strain GC 6257; broth dilution, 18 hours at 35° C.
  MIC Coagulase Negative Staphylococcus (GC 6257): 2 µg/mL (≈ 1.31 µM)
